# From EPA's ToxValDB 9.5 (doi:10.2903/j.efsa.2015.4279)
# What was measured:
# Typhlodromus pyri = assay: LR50; higher = less toxic; conditions: not reported; mortality
# Apis mellifera = conditions: acute; oral; unspecified; mortality
# Bibionidae = conditions: chronic/long-term; duration: 28 days; development
# Oncorhynchus mykiss = conditions: chronic/long-term; duration: 95 days; growth
# Daphnia magna = conditions: chronic/long-term; duration: 21 days; reproduction
# Folsomia candida = conditions: chronic/long-term
# Colinus virginianus = conditions: chronic
# Anas platyrhynchos = conditions: acute; oral; unspecified; mortality
# Oryctolagus sp. = conditions: reproduction developmental; hematological
# Canidae = conditions: oral, Dog Other, hematological
compound,measurement,setting,value
O=C(Nc1ccc(F)cc1)c1cccc(Oc2cccc(C(F)(F)F)c2)n1 [Picolinafen],LR50,Typhlodromus pyri,> 100 g/ha
same,LD50,"Rattus norvegicus; acute, mortality",> 5000 mg/kg-day
same,NOAEL,Rattus norvegicus; chronic,4 mg/kg-day
same,LD50,Apis mellifera,> 200 µg/piece
same,NOEC,Bibionidae,0.18 mg/L
same,NOEC,Oncorhynchus mykiss,0.0064 mg/L
same,NOEC,Daphnia magna,0.007 mg/L
same,NOEC,Folsomia candida,250 mg/kg
same,LC50,"Tagia sp.; acute, duration: 14 days, mortality",> 500 mg/kg
same,NOEC,"Tagia sp.; chronic/long-term, duration: 8 weeks",1.68 mg/kg
same,NOEL,Colinus virginianus,59.5 mg/kg-day
same,LD50,Anas platyrhynchos,> 2250 mg/kg-day
same,NOAEL,Oryctolagus sp.,5 mg/kg-day
same,NOAEL,"Canidae; chronic, duration: 1 years",1.4 mg/kg-day
same,NOAEL,"Canidae; subchronic, duration: 90 days",5.2 mg/kg-day
